How the values were obtained:
[1] = Retention on reversed-phase C4 HPLC column as indication of tissue penetration; type: physicochemical; details: ACE C4 150 × 4.6 mm, MeOH-H2O 10:90, 0.5 mL/min, 40 °C
Description: Under the given conditions, it was assumed that the stationary phase simulates the tissue while the aqueous mobile phase represents the surrounding space. […] The analysis was carried out under isocratic conditions with a flow rate of 0.5 mL/min and a mobile phase consisting of MeOH-H2O at 10:90 (v/v).

[2] = Franz diffusion cell in vitro permeability, cellulose membrane; details: for Cumulative Amount Permeated, Cellulose (Hydrophilic): after 8 h, mean ± SD (n = 3); for Papp (experimental, in vitro): cellulose membrane, Table 6, compared with PLS prediction; for Papp at 8 h: pH 7.4; for permeation order of the substance, Cellulose (Hydrophilic): rank among the six drugs by cumulative amount after 8 h
From the text: (§1) There are many membranes available on the market that are grouped as cellulosic and polymeric. Taking into account those that are more convenient and economical, two synthetic membranes and their combinations were used. Synthetic PVDF (polyvinylidene difluoride) and cellulose acetate (Table S2) membranes were pre-treated according to the supplier’s instructions. Cellulose membranes were further treated to acquire their lipophilic properties. Thus, they were placed on a flat glass surface and completely coated with IPM (isopropyl myristate) solution. The cellulose membrane was allowed to incubate in the IPM solution for 30 min. After impregnation, the excess IPM solution was drained off, and the membrane was used for the in vitro experiments. To ensure that the procedure was carried out successfully, the cellulose membrane was weighed before and after pretreatment.
(§2) The in vitro permeability profile of each compound was evaluated using the Franz diffusion cell setup (PermeGear, Hellertown, PA, USA). Five distinct artificial membranes were placed between the donor (upper) and receiver (lower) chambers of cells, with an effective diffusion area of 4.9 cm^2 and a receptor volume of 20 mL; 1 mL of APIs solutions were placed in the donor compartment, which was sealed with Parafilm® to prevent any loss of moisture. The acceptor contained degassed PBS at pH 7.4. The procedure was performed under agitation at 90 rpm and at a temperature of 37 °C ± 0.2 °C.
(§3) At specified intervals (t = 2, 3, 4, 6, and 8 h), 0.5 mL of the samples was taken from the receptor compartment and replaced with an equal volume of freshly prewarmed receptor medium. The concentration of each API was quantified using the appropriate HPLC method (Section 4.1) without sample pretreatment. Blanks containing PBS were pretreated with the same procedure. Each sample was analyzed in triplicate, and its cumulative release over time was plotted (Figure 2). The steady-state flux (Jss) was determined by plotting the permeation of the API per unit area (μg/cm^2) against time (h) and calculating the slope of the linear portion of the resulting line. Equation (1) was applied to calculate the apparent permeability coefficient (cm/h) (Paap).

[3] = cited from earlier work; for PSA: ref Pubchem [1]
[4] = Franz diffusion cell in vitro permeability, hybrid IPM-cellulose membrane
From the text: as §1, §2, §3

[5] = Franz diffusion cell in vitro permeability, IPM-impregnated cellulose membrane; details: for Cumulative Amount Permeated, Impregnated IPM: after 8 h, mean ± SD (n = 3); for Papp at 8 h: pH 7.4; for permeation order of the substance, Impregnated IPM: rank among the six drugs by cumulative amount after 8 h
From the text: as §1, §2, §3

[6] = Ex vivo permeability in Franz diffusion cell, cow vaginal tissue
Description: Ex vivo experiments were conducted on cow vaginal mucosa sourced from a local slaughterhouse. Tissues with an exposure area of 0.19 cm^2 were placed in a Franz diffusion cell with the epithelial mucosa side facing the donor compartment. In the donor compartment, 200 μL of API’s solution in VFS (pH 4.5) was added (37 °C ± 0.2 °C), while the acceptor was filled with 5 mL of PBS at pH 7.4 (constant stirring at 100 rpm).
Samples were centrifuged at 2000× g for 10 min, and supernatants were analyzed using HPLC as described in Section 4.1.
The procedure for extracting the drug from the tissue was as follows: after the experiment was completed, each tissue was carefully removed from the Franz cell and immersed in 5 mL of methanol. It was then sonicated for 30 min, followed by 10 min of vertexing, another 30 min in the sonicator, and 10 min of vertexing. Finally, the samples were centrifuged for 20 min at 5000× g, and the supernatant was collected for analysis.

[7] = Franz diffusion cell in vitro permeability, PVDF membrane; details: for Cumulative Amount Permeated, PVDF (Hydrophobic): after 8 h, mean ± SD (n = 3); for Papp at 8 h: pH 7.4; for permeation order of the substance, PVDF (Hydrophobic): rank among the six drugs by cumulative amount after 8 h
From the text: as §1, §2, §3

[8] = Franz diffusion cell in vitro permeability, hybrid PVDF-cellulose membrane
From the text: as §1, §2
as §3, with “Blanks containing PBS were pretreated with the same procedure.” left out, “Equation (1) was applied to calculate the apparent permeability coefficient (cm/h) (Paap).” left out

[9] = cited from earlier work
[10] = rank among the six drugs by cumulative amount after 8 h

Structure (SMILES) | Retention time (tr) in column C4 [1] [min] | Papp value / permeability / diffusion profile in cellulose membrane [2] | Cumulative Amount Permeated, Cellulose (Hydrophilic) [2] [μg/cm^2] | Papp (experimental, in vitro) [2] [×10⁻⁶ cm/s] | Papp at 8 h [2] [×10⁻⁶ cm/s] | permeation order of the substance, Cellulose (Hydrophilic) [2] | diffusion profile in cellulose-IPM membrane [4] | Cumulative Amount Permeated, Impregnated IPM [5] [μg/cm^2] | Papp at 8 h [5] [×10⁻⁶ cm/s] | permeation order of the substance, Impregnated IPM [5] | tissue permeability / diffusion profile in vaginal tissue, ex vivo [6] | Acceptor's Mass ([6]; cow, 8 h) | Final Mass Donor ([6]; cow, 8 h) | Tissue Extraction ([6]; cow, 8 h) | Cumulative Amount Permeated, PVDF (Hydrophobic) [7] [μg/cm^2] | Papp at 8 h [7] [×10⁻⁶ cm/s] | permeation order of the substance, PVDF (Hydrophobic) [7] | Tangible aqueous solubility (descriptive term) ([3]; ref European Pharmacopeia) | PSA [3] [Å2] | also measured
CCN(CC)CC(=O)Nc1c(C)cccc1C [LIDO, lidocaine] | – | – | – | – | – | – | – | – | – | – | – | 0.53 (±0.09) mg | 0.9 (±0.1) mg | 0.5 (±0.09) mg | – | – | – | – | – | –
Cc1ncc([N+](=O)[O-])n1CCO [METRO, metronidazole] | 3.93 | – | 3976.4 | 6.39 | 6.39 | 1st | – | 2373.1 | 3.89 | 1st | – | 0.65 (±0.08) mg | 0.01 (±0.001) mg | 1.4 (±0.2) mg | 2008.4 | 2.5 | 1st | very soluble | 83.87 | Cumulative Amount Permeated, PVDF-Cellulose ([8]; after 8 h, mean ± SD (n = 3)): 370.2 μg/cm^2; Papp at 8 h ([8]; pH 7.4): 1.11 ×10⁻⁶ cm/s; permeation order of the substance, PVDF-Cellulose [8, 10]: 3rd; Tangible aqueous solubility (value in brackets) ([3]; ref European Pharmacopeia): 5920 µg/mL; Cumulative Amount Permeated, IPM-Cellulose ([4]; after 8 h, mean ± SD (n = 3)): 307.3 μg/cm^2; Papp at 8 h ([4]; pH 7.4): 0.556 ×10⁻⁶ cm/s; permeation order of the substance, IPM-Cellulose [4, 10]: 3rd; Papp at 8 h, 10 mg/mL ([6]; cow): 12.8 ×10⁻⁶ cm/s; Cumulative Amount Permeated, Tissue ([6]; cow, 8 h, 10 mg/mL): 3419.5 μg/cm^2; permeation order of the substance, Tissue ([6]; cow, 8 h, 10 mg/mL): 1st
CCCCCCCCCc1ccc(OCCOCCOCCOCCOCCOCCOCCOCCOCCO)cc1 [NONO, nonoxynol-9] | 39.48 | negligible | 20.1 | 0.0556 | – | 4th | zero | – | – | – | does not penetrate the vaginal tissue at all and zero | – | – | – | 1752.2 | – | 2nd | miscible with H2O | 103.3 | Tissue Extraction ([6]; drug extracted from tissue with methanol after the experiment): 0.15 (±0.05) mg; Acceptor's Mass ([6]; ex vivo, end of experiment): 0 mg; Final Mass Donor ([6]; ex vivo, end of experiment, mean ± SD (n = 3)): 1.85 (±0.2) mg
O=[N+]([O-])OCC(CO[N+](=O)[O-])O[N+](=O)[O-] [nitroglycerin] | – | – | – | – | – | – | – | – | – | – | – | – | – | – | – | – | – | – | – | log P [9]: 1.6

Second part, led by results:

Retention time (tr) in column C4 [1] [min] | Papp value / permeability / diffusion profile in cellulose membrane [2] | Cumulative Amount Permeated, Cellulose (Hydrophilic) [2] [μg/cm^2] | Papp (experimental, in vitro) [2] [×10⁻⁶ cm/s] | Papp at 8 h [2] [×10⁻⁶ cm/s] | permeation order of the substance, Cellulose (Hydrophilic) [2] | diffusion profile in cellulose-IPM membrane [4] | Cumulative Amount Permeated, Impregnated IPM [5] [μg/cm^2] | Papp at 8 h [5] [×10⁻⁶ cm/s] | permeation order of the substance, Impregnated IPM [5] | tissue permeability / diffusion profile in vaginal tissue, ex vivo [6] | Acceptor's Mass ([6]; cow, 8 h) | Final Mass Donor ([6]; cow, 8 h) | Tissue Extraction ([6]; cow, 8 h) | Cumulative Amount Permeated, PVDF (Hydrophobic) [7] [μg/cm^2] | Papp at 8 h [7] [×10⁻⁶ cm/s] | permeation order of the substance, PVDF (Hydrophobic) [7] | Structure (SMILES) | Tangible aqueous solubility (descriptive term) ([3]; ref European Pharmacopeia) | PSA [3] [Å2] | also measured
9.94 | negligible | 1.7 | 0.239 | 0.239 | 5th | zero | 0.92 | 0.0389 | 4th | zero | 0 mg | 0.2 (±0.01) mg | 0.01 (±0.001) mg | 15.3 | 0.0417 | 6th | Clc1ccc(COC(Cn2ccnc2)c2ccc(Cl)cc2Cl)cc1 (stereo not shown) [ECO, econazole] | very slightly soluble | 27 | –
10.2 | negligible and zero | – | 0 | – | – | zero | – | – | – | zero | 0 mg | 0.26 (±0.02) mg | 0 mg | 33.4 | 0.806 | 5th | Clc1ccc(COC(Cn2ccnc2)c2ccc(Cl)cc2Cl)c(Cl)c1 (stereo not shown) [MICO, miconazole] | very slightly soluble | 27 | –

Reference: publication PMC11123929, “A Comparative Study and Prediction of the Ex Vivo Permeation of Six Vaginally Administered Drugs across Five Artificial Membranes and Vaginal Tissue” (Molecules, 2024)
